Data: ChEMBL document CHEMBL1138908, “Design and structure-activity relationship of 3-benzimidazol-2-yl-1H-indazoles as inhibitors of receptor tyrosine kinases” (Bioorg Med Chem Lett, 2006)

Key:
[1] = target: Vascular endothelial growth factor receptor 1 (Homo sapiens, UniProt P17948); experiment: Inhibition of VEGFR1
[2] = target: Fibroblast growth factor receptor 1 (Homo sapiens, UniProt P11362); experiment: Inhibition of FGFR1
[3] = target: Vascular endothelial growth factor receptor 2 (Mus musculus, UniProt P35918); experiment: Inhibition of VEGFR2
Chain of Vascular endothelial growth factor receptor 2 (P35918 whole entry): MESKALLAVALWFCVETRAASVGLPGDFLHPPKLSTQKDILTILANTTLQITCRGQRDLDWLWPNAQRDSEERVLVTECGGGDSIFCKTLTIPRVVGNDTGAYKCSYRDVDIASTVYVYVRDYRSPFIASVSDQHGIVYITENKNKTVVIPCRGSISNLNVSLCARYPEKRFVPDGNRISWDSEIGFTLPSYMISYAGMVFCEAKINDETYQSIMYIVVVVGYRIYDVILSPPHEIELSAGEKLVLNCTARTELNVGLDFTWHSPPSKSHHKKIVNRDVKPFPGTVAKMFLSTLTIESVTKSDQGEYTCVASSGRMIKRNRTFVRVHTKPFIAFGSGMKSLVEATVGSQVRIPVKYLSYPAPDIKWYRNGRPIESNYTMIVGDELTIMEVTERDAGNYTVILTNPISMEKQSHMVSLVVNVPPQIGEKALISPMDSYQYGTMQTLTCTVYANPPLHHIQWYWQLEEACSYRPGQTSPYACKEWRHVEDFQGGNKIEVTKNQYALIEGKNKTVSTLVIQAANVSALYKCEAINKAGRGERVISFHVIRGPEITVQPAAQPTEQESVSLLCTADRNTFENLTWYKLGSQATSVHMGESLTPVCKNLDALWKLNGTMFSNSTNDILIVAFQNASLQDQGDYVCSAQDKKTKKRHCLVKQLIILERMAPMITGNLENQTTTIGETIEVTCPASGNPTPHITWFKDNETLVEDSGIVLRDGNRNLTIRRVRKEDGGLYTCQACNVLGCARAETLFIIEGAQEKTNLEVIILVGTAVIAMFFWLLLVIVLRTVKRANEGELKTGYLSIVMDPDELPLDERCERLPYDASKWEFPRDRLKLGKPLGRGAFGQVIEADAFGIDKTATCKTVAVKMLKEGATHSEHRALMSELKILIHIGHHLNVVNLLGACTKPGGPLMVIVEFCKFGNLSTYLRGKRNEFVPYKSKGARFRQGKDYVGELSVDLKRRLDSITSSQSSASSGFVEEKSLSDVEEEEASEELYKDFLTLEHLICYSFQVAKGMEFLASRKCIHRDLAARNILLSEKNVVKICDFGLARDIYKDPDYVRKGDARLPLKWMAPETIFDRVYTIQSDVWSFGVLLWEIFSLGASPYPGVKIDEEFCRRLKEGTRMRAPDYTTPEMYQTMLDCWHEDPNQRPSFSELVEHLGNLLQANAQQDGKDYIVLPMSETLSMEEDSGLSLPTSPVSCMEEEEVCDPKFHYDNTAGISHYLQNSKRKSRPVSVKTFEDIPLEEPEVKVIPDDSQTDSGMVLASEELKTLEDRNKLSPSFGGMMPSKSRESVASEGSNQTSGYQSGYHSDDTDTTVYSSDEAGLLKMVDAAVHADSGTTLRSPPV

HMEC = experiment: Inhibition of VEGF-mediated proliferation of HMVEC; format: functional, cell-based; details: Homo sapiens
[4] = target: Platelet-derived growth factor receptor beta (Mus musculus, UniProt P05622); experiment: Inhibition of PDGFRbeta
Chain of Platelet-derived growth factor receptor beta (P05622 whole entry): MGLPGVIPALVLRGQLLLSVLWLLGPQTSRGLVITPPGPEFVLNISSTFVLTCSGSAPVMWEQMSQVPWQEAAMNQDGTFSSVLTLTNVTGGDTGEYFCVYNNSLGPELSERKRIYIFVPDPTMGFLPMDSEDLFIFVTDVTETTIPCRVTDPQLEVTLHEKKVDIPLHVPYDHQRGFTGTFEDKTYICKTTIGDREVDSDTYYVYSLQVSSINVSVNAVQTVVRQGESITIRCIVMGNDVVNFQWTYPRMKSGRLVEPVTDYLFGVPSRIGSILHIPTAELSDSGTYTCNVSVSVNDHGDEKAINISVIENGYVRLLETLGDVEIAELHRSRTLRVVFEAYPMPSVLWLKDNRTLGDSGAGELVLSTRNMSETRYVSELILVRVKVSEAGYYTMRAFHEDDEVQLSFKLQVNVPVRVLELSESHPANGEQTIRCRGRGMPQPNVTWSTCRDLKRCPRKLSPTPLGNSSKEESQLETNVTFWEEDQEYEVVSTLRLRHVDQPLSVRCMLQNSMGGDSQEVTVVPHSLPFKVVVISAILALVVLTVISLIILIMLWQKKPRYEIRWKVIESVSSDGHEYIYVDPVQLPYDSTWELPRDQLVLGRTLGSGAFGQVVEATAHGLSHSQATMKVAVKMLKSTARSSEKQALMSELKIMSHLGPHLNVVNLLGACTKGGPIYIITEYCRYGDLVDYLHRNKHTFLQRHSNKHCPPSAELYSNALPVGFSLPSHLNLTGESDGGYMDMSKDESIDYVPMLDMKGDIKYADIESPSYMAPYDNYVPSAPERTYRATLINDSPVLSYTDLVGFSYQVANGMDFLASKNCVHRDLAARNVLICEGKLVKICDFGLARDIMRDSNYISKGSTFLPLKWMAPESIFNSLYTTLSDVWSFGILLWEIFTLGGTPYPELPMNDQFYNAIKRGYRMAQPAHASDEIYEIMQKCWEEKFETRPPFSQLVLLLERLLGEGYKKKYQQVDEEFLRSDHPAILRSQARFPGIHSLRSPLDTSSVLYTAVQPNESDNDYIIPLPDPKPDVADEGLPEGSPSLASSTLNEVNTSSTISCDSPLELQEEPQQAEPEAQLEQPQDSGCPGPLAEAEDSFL

Mus musculus = species: Mus musculus; experiment: Area under curve in mouse; format: ADME, organism-based; details: in vivo
KM12 [5] = experiment: Antitumor activity against human KM12L4a cell line xenografted in nude mice at 100 mg/kg, after 14 days; format: functional; details: Mus musculus, KM12, 336 h, read-out: TGI
[6] = Oral bioavailability in mouse; format: ADME, organism-based; details: in vivo
[7] = Half life in mouse; format: ADME, organism-based; details: in vivo
[8] = Clearance in mouse; format: ADME, organism-based; details: in vivo
KM12 [9] = experiment: Antitumor activity against human KM12L4a cell line xenografted in nude mice at 30 mg/kg, after 14 days; format: functional; details: Mus musculus, KM12, 336 h, read-out: TGI
[10] = Volume of distribution in mouse; format: ADME, organism-based; details: in vivo, read-out: Vdss

Chain of Fibroblast growth factor receptor 1 (P11362 whole entry): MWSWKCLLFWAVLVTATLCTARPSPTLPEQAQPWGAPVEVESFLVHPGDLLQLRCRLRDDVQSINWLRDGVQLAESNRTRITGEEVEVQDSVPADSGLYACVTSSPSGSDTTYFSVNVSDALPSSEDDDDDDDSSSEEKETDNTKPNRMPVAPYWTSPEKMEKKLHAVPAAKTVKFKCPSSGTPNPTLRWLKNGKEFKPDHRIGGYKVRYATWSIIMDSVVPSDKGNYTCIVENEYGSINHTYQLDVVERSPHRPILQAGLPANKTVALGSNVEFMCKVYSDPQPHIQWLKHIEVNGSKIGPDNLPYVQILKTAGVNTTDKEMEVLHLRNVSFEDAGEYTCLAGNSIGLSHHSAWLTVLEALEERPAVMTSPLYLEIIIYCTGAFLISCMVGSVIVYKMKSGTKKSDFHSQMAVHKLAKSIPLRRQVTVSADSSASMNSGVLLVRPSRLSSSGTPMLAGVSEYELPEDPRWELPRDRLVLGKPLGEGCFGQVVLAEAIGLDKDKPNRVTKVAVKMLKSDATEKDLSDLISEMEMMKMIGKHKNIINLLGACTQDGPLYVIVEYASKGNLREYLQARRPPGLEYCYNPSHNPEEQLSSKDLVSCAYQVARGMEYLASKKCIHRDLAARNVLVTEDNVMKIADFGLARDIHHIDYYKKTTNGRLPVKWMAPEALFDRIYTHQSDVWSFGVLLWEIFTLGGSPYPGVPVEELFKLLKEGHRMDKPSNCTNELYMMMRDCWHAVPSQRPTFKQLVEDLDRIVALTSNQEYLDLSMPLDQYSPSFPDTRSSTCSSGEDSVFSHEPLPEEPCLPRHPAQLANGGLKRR
Chain of Vascular endothelial growth factor receptor 1 (P17948 whole entry): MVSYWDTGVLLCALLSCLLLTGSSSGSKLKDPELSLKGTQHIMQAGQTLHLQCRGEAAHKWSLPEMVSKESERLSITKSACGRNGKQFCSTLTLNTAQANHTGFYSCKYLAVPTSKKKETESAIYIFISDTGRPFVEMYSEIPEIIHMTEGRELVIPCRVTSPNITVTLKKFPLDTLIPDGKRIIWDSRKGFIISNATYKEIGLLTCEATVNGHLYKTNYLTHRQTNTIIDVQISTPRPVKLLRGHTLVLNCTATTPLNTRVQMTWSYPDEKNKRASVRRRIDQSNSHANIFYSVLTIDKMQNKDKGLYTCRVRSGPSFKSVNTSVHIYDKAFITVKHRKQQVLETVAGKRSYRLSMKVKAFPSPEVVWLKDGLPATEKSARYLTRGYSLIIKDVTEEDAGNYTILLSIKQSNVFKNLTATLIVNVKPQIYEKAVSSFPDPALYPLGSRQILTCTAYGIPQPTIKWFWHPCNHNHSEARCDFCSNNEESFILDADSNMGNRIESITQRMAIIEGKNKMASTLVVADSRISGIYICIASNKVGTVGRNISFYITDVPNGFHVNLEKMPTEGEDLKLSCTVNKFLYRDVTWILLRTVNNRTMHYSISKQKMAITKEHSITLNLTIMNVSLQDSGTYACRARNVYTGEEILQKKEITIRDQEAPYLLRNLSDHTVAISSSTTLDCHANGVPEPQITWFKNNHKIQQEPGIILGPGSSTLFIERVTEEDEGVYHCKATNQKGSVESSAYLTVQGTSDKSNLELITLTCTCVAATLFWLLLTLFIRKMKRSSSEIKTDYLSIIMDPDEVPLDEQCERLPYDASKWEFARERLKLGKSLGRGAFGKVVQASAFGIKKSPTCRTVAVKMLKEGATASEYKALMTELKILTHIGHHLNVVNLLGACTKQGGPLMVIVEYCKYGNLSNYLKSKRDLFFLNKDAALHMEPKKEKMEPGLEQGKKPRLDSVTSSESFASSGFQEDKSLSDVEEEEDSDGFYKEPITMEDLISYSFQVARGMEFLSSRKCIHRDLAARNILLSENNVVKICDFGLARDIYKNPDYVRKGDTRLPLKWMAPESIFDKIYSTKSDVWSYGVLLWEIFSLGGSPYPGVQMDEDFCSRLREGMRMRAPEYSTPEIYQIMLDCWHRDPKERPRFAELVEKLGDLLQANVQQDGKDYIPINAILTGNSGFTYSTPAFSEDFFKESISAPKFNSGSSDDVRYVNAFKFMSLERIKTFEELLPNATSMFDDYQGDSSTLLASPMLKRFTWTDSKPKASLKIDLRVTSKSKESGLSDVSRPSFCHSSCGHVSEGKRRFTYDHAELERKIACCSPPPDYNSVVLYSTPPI

SMILES	IC50 [1]	IC50 [2]	IC50 [3]	EC50 (HMEC)	IC50 [4]	AUC (Mus musculus)	inhibition in vivo at 100 mg/kg (KM12 [5])	bioavailability [6]	half-life [7]	clearance [8]	inhibition in vivo at 30 mg/kg (KM12 [9])	Vd [10]
CC(C)(C)NC(=O)Nc1cccc2[nH]nc(-c3nc4cc(N5CCC(N6CCCCC6)CC5)ccc4[nH]3)c12	0.004 µM	0.003 µM	0.07 µM	0.24 µM	0.44 µM	–	–	–	–	–	–	–
c1ccc(Oc2ccc3n[nH]c(-c4nc5cc(N6CCC(N7CCCCC7)CC6)ccc5[nH]4)c3c2)cc1	0.028 µM	0.015 µM	0.044 µM	0.08 µM	0.008 µM	–	–	–	–	–	–	–
CN1CCC(N(C)c2ccc3nc(-c4n[nH]c5ccccc45)[nH]c3c2)CC1	0.008 µM	0.018 µM	0.15 µM	0.22 µM	0.5 µM	–	–	–	–	–	–	–
CN1CCN(c2ccc3[nH]c(-c4[nH]nc5ccccc45)nc3c2)CC1	0.044 µM	0.082 µM	0.13 µM	0.097 µM	0.17 µM	–	–	–	–	–	–	–
Fc1ccc2c(-c3nc4cc(N5CCC(N6CCCCC6)CC5)ccc4[nH]3)[nH]nc2c1	0.01 µM	0.028 µM	0.028 µM	0.033 µM	0.31 µM	2830 ng·h/mL	88%	62%	4.22 h	71 mL/min/kg	50%	24.8 L/kg
c1ccc2c(-c3nc4ccc(N5CCOCC5)cc4[nH]3)n[nH]c2c1	0.05 µM	0.1 µM	0.16 µM	0.16 µM	0.26 µM	–	–	–	–	–	–	–
CC(C)(C)NC(=O)Nc1ccc2[nH]nc(-c3nc4ccc(N5CCC(N6CCCCC6)CC5)cc4[nH]3)c2c1	–	–	0.005 µM	0.35 µM	0.081 µM	–	–	–	–	–	–	–
Nc1c(-c2nc3ccccc3[nH]2)c(=O)[nH]c2ccccc12	–	–	–	0.078 µM	–	–	–	–	–	–	–	–
CN1CCN(Cc2ccc3[nH]c(-c4[nH]nc5ccccc45)nc3c2)CC1	0.17 µM	0.27 µM	0.26 µM	0.3 µM	1.9 µM	–	–	–	–	–	–	–
c1ccc2c(-c3nc4ccc(N5CCC(N6CCCCC6)CC5)cc4[nH]3)n[nH]c2c1	0.028 µM	0.048 µM	0.078 µM	0.097 µM	0.69 µM	–	–	–	–	–	–	–
c1cc2[nH]nc(-c3nc4ccc(N5CCC(N6CCCCC6)CC5)cc4[nH]3)c2cc1NCC1CCCCC1	0.021 µM	0.016 µM	0.044 µM	0.22 µM	1.7 µM	–	–	–	–	–	–	–
c1ccc2c(-c3nc4cc(-n5ccnc5)ccc4[nH]3)n[nH]c2c1	0.096 µM	0.21 µM	0.083 µM	7 µM	1.4 µM	–	–	–	–	–	–	–
c1ccc2c(-c3nc4cc(OCCCN5CCCC5)ccc4[nH]3)[nH]nc2c1	0.048 µM	0.098 µM	0.17 µM	0.27 µM	0.44 µM	–	–	–	–	–	–	–
COC(=O)c1ccc2[nH]nc(-c3nc4ccc(N5CCC(N6CCCCC6)CC5)cc4[nH]3)c2c1	0.015 µM	0.073 µM	0.031 µM	0.13 µM	0.063 µM	–	–	–	–	–	–	–
FC(F)(F)c1ccc2c(-c3nc4ccc(N5CCC(N6CCCCC6)CC5)cc4[nH]3)n[nH]c2c1	–	–	0.052 µM	0.004 µM	0.062 µM	–	–	–	–	–	–	–
CC(C)(C)NC(=O)Nc1cccc2c(-c3nc4cc(N5CCC(N6CCCCC6)CC5)ccc4[nH]3)[nH]nc12	> 3 µM	> 3 µM	> 3 µM	–	> 3 µM	–	–	–	–	–	–	–
c1ccc2c(-c3nc4c(N5CCOCC5)cccc4[nH]3)n[nH]c2c1	> 3 µM	0.83 µM	> 3 µM	> 10 µM	> 3 µM	–	–	–	–	–	–	–
c1ccc(COc2cccc3c(-c4nc5cc(N6CCC(N7CCCCC7)CC6)ccc5[nH]4)[nH]nc23)cc1	> 3 µM	> 3 µM	> 3 µM	1.8 µM	> 3 µM	–	–	–	–	–	–	–
Fc1cccc2c(-c3nc4ccc(N5CCC(N6CCCCC6)CC5)cc4[nH]3)n[nH]c12	0.15 µM	0.2 µM	0.33 µM	1.4 µM	2.3 µM	–	–	–	–	–	–	–
c1ccc(COc2cccc3[nH]nc(-c4nc5cc(N6CCC(N7CCCCC7)CC6)ccc5[nH]4)c23)cc1	0.063 µM	0.094 µM	0.66 µM	0.46 µM	1.8 µM	–	–	–	–	–	–	–
c1ccc(COc2ccc3c(-c4nc5ccc(N6CCC(N7CCCCC7)CC6)cc5[nH]4)n[nH]c3c2)cc1	0.011 µM	0.023 µM	0.021 µM	0.22 µM	0.18 µM	–	–	–	–	–	–	–
c1ccc(COc2ccc3[nH]nc(-c4nc5ccc(N6CCC(N7CCCCC7)CC6)cc5[nH]4)c3c2)cc1	0.003 µM	0.008 µM	0.03 µM	0.19 µM	0.083 µM	–	–	–	–	–	–	–
c1ccc2[nH]c(-c3n[nH]c4ccccc34)nc2c1	0.72 µM	1.4 µM	3.3 µM	5.9 µM	3.4 µM	–	–	–	–	–	–	–
